Among the data in ChEMBL document CHEMBL3044881, “Synthesis and biological evaluation of novel series of chalcone derivatives as inhibitors of cyclooxygenase and LPS-induced TNF- with potent antioxidant properties” (Med Chem Res, 2012) are inhibition, Activity and IC50 values, retold here.

As usually defined, the inhibition is the percentage by which the read-out fell short of the control. As usually defined, the IC50 is the concentration at which inhibition is half-maximal.

One assay has as its system Blood. Description: Anti-inflammatory activity in Homo sapiens (human) whole blood assessed inhibition of LPS-induced TNF-alpha production at 1 uM treated 30 min before LPS challenge measured after 5 hr.
Conditions: not given; call rule not given here
The assay is classed as functional.
On to `COc1cc(OC)c(C(=O)/C=C/c2ccccc2F)c(O)c1Br`, for which the inhibition at 1 µM stood at 24%.
Take `COc1cc(OC)c(C(=O)/C=C/c2ccc(Cl)c([N+](=O)[O-])c2)c(O)c1Br`: the inhibition at 1 µM is 34%.
On the same count and under the same terms, the result for `COc1cc(OC)c(C(=O)/C=C/c2cccnc2)c(O)c1Br` reads 45%.
The same measure, in the same setting: the value for `COc1cc(OC)c(C(=O)/C=C/c2cccc([N+](=O)[O-])c2)c(O)c1Br` was 31%.
The same measure, in the same setting: the result for `COc1ccc(/C=C/C(=O)c2c(OC)cc(OC)c(Br)c2O)c(OC)c1` reads 21%; that for `COc1cc(OC)c(C(=O)/C=C/c2cccc(F)c2)c(O)c1Br`, 36%; that for `COc1ccc(/C=C/C(=O)c2c(OC)cc(OC)c(Br)c2O)cc1`, 38%.
For the molecule `COc1cc(OC)c(C(=O)/C=C/c2ccccc2C(F)(F)F)c(O)c1Br`, the inhibition at 1 µM amounted to 27%.
Same read-out and setting: the result for `COc1cc(OC)c(C(=O)/C=C/c2ccccc2Cl)c(O)c1Br` reads 40%; that for `COc1cc(OC)c(C(=O)/C=C/c2ccc(Cl)cc2Cl)c(O)c1Br`, 46%.

The subject of a further assay is Radical scavenging activity. The assay can be described thus: Antioxidant activity assessed as DPPH free radical scavenging activity at 10 uM by spectrophotometric analysis. The assay is classed as functional.
Conditions: not given
In general terms: Loss of DPPH colour is used to gauge radical scavenging.
For `COc1cc(OC)c(C(=O)/C=C/c2ccccc2F)c(O)c1Br`, the Activity was found to be 29.9%.
Same read-out and setting: the result for `COc1cc(OC)c(C(=O)/C=C/c2ccc(Cl)c([N+](=O)[O-])c2)c(O)c1Br` reads 14.3%; that for `COc1cc(OC)c(C(=O)/C=C/c2cccnc2)c(O)c1Br`, 21.1%; that for `COc1cc(OC)c(C(=O)/C=C/c2cccc([N+](=O)[O-])c2)c(O)c1Br`, 23.7%.
Same read-out and setting: the result for `COc1ccc(/C=C/C(=O)c2c(OC)cc(OC)c(Br)c2O)c(OC)c1` reads 20.2%; that for `COc1cc(OC)c(C(=O)/C=C/c2cccc(F)c2)c(O)c1Br`, 12%.
The same measure, in the same setting: the value for `COc1ccc(/C=C/C(=O)c2c(OC)cc(OC)c(Br)c2O)cc1` was 38.4%; that for `COc1cc(OC)c(C(=O)/C=C/c2ccccc2C(F)(F)F)c(O)c1Br` was 13.7%.
For the molecule `COc1cc(OC)c(C(=O)/C=C/c2ccccc2Cl)c(O)c1Br`, the Activity was 15.8%.
Same read-out and setting: the value for `COc1cc(OC)c(C(=O)/C=C/c2ccc(Cl)cc2Cl)c(O)c1Br` was 17.3%.

The test system of another assay is Blood. The assay can be described thus: Anti-inflammatory activity in Homo sapiens (human) whole blood assessed inhibition of LPS-induced TNF-alpha production at 10 uM treated 30 min before LPS challenge measured after 5 hr. The assay is classed as functional.
Conditions: not given
As to `COc1cc(OC)c(C(=O)/C=C/c2ccccc2F)c(O)c1Br`, at 10 µM the inhibition was 38%.
The molecule `COc1cc(OC)c(C(=O)/C=C/c2ccc(Cl)c([N+](=O)[O-])c2)c(O)c1Br` yielded an inhibition at 10 µM of 49%.
Molecule `COc1cc(OC)c(C(=O)/C=C/c2cccnc2)c(O)c1Br` came in with an inhibition at 10 µM of 85%.
`COc1cc(OC)c(C(=O)/C=C/c2cccc([N+](=O)[O-])c2)c(O)c1Br` came in with an inhibition at 10 µM of 50%.
Same read-out and setting: the value for `COc1ccc(/C=C/C(=O)c2c(OC)cc(OC)c(Br)c2O)c(OC)c1` was 59%.
Still for that read-out and setting: the value for `COc1cc(OC)c(C(=O)/C=C/c2cccc(F)c2)c(O)c1Br` was 63%; that for `COc1ccc(/C=C/C(=O)c2c(OC)cc(OC)c(Br)c2O)cc1` was 53%.
On the same count and under the same terms, the result for `COc1cc(OC)c(C(=O)/C=C/c2ccccc2C(F)(F)F)c(O)c1Br` reads 52%; that for `COc1cc(OC)c(C(=O)/C=C/c2ccccc2Cl)c(O)c1Br`, 72%.
In turn, `COc1cc(OC)c(C(=O)/C=C/c2ccc(Cl)cc2Cl)c(O)c1Br` returned an inhibition at 10 µM of 53%.

The next assay deals with T1, Beta-glucuronidase (Homo sapiens) (UniProt P08236).
T1 sequence (whole entry): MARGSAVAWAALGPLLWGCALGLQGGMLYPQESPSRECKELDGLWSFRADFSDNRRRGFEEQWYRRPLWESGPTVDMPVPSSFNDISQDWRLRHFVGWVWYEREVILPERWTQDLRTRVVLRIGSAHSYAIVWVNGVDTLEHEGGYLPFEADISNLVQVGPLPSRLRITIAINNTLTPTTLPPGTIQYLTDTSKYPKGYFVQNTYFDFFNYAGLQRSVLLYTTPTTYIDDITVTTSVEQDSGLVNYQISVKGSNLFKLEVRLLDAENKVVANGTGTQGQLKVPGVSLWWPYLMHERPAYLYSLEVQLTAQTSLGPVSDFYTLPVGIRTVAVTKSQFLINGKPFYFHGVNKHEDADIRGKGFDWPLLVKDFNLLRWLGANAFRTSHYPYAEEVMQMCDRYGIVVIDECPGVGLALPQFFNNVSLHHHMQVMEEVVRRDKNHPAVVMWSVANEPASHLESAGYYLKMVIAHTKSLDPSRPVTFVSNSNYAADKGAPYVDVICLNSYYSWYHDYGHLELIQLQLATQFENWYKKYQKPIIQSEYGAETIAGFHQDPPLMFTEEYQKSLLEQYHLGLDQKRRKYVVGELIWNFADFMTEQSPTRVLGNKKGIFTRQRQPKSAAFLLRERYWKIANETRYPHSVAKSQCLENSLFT
The assay can be described thus: Inhibition of beta-glucuronidase (unknown origin) using p-nitrophenyl-beta-D-glucopyranosiduronic acid as substrate at 1 mM after 30 min.
Conditions: not given
As for `COc1ccc(/C=C/C(=O)c2c(OC)cc(OC)c(Br)c2O)c(OC)c1`, the inhibition is 41.3%.

Another assay concerns the target T2, Prostaglandin G/H synthase 1 (Ovis aries) (UniProt P05979).
T2 sequence (whole entry): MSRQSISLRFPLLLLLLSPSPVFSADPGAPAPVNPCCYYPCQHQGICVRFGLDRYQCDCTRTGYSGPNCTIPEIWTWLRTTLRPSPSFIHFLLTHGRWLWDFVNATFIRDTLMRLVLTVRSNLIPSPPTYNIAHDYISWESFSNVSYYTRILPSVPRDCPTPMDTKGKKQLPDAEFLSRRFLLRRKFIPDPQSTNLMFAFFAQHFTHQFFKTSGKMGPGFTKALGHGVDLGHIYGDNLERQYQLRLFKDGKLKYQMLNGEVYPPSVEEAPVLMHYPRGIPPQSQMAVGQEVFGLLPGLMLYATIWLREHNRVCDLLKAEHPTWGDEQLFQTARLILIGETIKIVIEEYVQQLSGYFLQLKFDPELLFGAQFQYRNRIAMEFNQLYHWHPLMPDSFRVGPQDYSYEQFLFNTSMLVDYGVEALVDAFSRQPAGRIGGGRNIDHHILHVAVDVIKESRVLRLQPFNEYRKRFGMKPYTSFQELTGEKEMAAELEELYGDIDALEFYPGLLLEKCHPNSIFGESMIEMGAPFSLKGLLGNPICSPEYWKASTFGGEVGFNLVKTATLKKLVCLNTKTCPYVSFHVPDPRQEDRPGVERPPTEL
The settings on record: at 1 mM.
Description: Inhibition of Ovis aries (sheep) COX1 at 1 mM after 5 min by colorimetric analysis
The molecule `COc1ccc(/C=C/C(=O)c2c(OC)cc(OC)c(Br)c2O)c(OC)c1` registered an inhibition of 52.4%.

Another assay deals with T3, Prostaglandin G/H synthase 2 (Ovis aries) (UniProt P79208).
T3 sequence (whole entry): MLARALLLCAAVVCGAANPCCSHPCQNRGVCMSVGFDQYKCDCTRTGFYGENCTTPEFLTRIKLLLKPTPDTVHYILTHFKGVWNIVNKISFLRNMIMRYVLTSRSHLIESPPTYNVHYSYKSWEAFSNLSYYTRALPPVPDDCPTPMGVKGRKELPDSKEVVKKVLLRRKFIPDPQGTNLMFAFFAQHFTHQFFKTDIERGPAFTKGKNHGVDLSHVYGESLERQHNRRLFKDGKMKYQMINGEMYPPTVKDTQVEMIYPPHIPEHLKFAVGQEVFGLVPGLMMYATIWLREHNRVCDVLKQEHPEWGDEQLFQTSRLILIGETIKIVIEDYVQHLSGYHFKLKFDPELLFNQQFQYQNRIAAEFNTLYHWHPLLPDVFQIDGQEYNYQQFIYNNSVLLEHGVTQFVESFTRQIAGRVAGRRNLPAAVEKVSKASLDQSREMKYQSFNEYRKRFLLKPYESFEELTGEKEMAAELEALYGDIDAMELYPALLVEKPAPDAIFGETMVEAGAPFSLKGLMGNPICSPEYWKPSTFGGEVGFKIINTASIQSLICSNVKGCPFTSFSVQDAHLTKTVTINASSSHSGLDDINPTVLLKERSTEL
The assay can be described thus: Inhibition of Ovis aries (sheep) COX2 at 1 mM after 5 min by colorimetric analysis.
Conditions: not given
Consider `COc1ccc(/C=C/C(=O)c2c(OC)cc(OC)c(Br)c2O)c(OC)c1`, for which the inhibition is 57.8%.

System in a further assay: not listed separately
Description: Antioxidant activity assessed as reduction of K3Fe(CN)6 to Fe2+ at 10 uM after 10 min. The assay is classed as functional. Also on record: scale not given: the % may be the effect or the level left.
Conditions: not given
As to `COc1cc(OC)c(C(=O)/C=C/c2ccccc2F)c(O)c1Br`, the Activity came to 29.7%.
Same read-out and setting: the result for `COc1cc(OC)c(C(=O)/C=C/c2ccc(Cl)c([N+](=O)[O-])c2)c(O)c1Br` reads 26%; that for `COc1cc(OC)c(C(=O)/C=C/c2cccnc2)c(O)c1Br`, 16.6%.
On the same count and under the same terms, the result for `COc1cc(OC)c(C(=O)/C=C/c2cccc([N+](=O)[O-])c2)c(O)c1Br` reads 26.2%; that for `COc1ccc(/C=C/C(=O)c2c(OC)cc(OC)c(Br)c2O)c(OC)c1`, 18.4%.
On the same count and under the same terms, the value for `COc1cc(OC)c(C(=O)/C=C/c2cccc(F)c2)c(O)c1Br` was 12.2%; that for `COc1ccc(/C=C/C(=O)c2c(OC)cc(OC)c(Br)c2O)cc1` was 34.3%.
For the molecule `COc1cc(OC)c(C(=O)/C=C/c2ccccc2C(F)(F)F)c(O)c1Br`, the Activity was 10%.
The same measure, in the same setting: the value for `COc1cc(OC)c(C(=O)/C=C/c2ccccc2Cl)c(O)c1Br` was 14.3%; that for `COc1cc(OC)c(C(=O)/C=C/c2ccc(Cl)cc2Cl)c(O)c1Br` was 17.4%.

System in the next assay: not listed separately
The assay can be described thus: Antioxidant activity assessed as hydroxyl radical scavenging activity at 10 uM by spectrophotometric analysis. The assay is classed as functional.
Conditions: not given
For the molecule `COc1cc(OC)c(C(=O)/C=C/c2ccccc2F)c(O)c1Br`, the Activity was 16.8%.
Still for that read-out and setting: the value for `COc1cc(OC)c(C(=O)/C=C/c2cccnc2)c(O)c1Br` was 44.1%.
On to `COc1cc(OC)c(C(=O)/C=C/c2cccc([N+](=O)[O-])c2)c(O)c1Br`, for which the Activity worked out at 18.8%.
Same read-out and setting: the result for `COc1ccc(/C=C/C(=O)c2c(OC)cc(OC)c(Br)c2O)c(OC)c1` reads 28.8%.
On the same count and under the same terms, the result for `COc1ccc(/C=C/C(=O)c2c(OC)cc(OC)c(Br)c2O)cc1` reads 49.4%; that for `COc1cc(OC)c(C(=O)/C=C/c2ccccc2C(F)(F)F)c(O)c1Br`, 47%.
Still for that read-out and setting: the value for `COc1cc(OC)c(C(=O)/C=C/c2ccccc2Cl)c(O)c1Br` was 32.3%; that for `COc1cc(OC)c(C(=O)/C=C/c2ccc(Cl)cc2Cl)c(O)c1Br` was 30.2%.

A further assay addresses Trypsin (Homo sapiens) (UniProt P07477+P07478+P35030). The assay can be described thus: Inhibition of trypsin (unknown origin) assessed as hydrolysis of bovine serum albumin at 1 mM after 20 min. The assay is classed as protein assay.
Conditions: not given
As to `COc1ccc(/C=C/C(=O)c2c(OC)cc(OC)c(Br)c2O)c(OC)c1`, the inhibition came to 39.5%.

In the next assay the test system is Blood. Description: Anti-inflammatory activity in Homo sapiens (human) whole blood assessed inhibition of LPS-induced TNF-alpha production treated 30 min before LPS challenge measured after 5 hr. The assay is classed as functional, tissue-based.
Conditions: not given
On to `COc1cc(OC)c(C(=O)/C=C/c2ccccc2F)c(O)c1Br`, for which the IC50 entry is on record as “Not Active”.

The assay is the same for the next values; noted with them: Homo sapiens, Blood; read-out: IC50.
Consider `COc1cc(OC)c(C(=O)/C=C/c2ccc(Cl)c([N+](=O)[O-])c2)c(O)c1Br`, for which the IC50 came out at 14.2 µM.
Still for that read-out and setting: the value for `COc1cc(OC)c(C(=O)/C=C/c2cccnc2)c(O)c1Br` was 0.1 µM; that for `COc1cc(OC)c(C(=O)/C=C/c2cccc([N+](=O)[O-])c2)c(O)c1Br` was 10.1 µM; that for `COc1ccc(/C=C/C(=O)c2c(OC)cc(OC)c(Br)c2O)c(OC)c1` was 10.2 µM.
For the molecule `COc1cc(OC)c(C(=O)/C=C/c2cccc(F)c2)c(O)c1Br`, the half-inhibitory concentration (IC50) stood at 1.2 µM.
Still for that read-out and setting: the result for `COc1ccc(/C=C/C(=O)c2c(OC)cc(OC)c(Br)c2O)cc1` reads 7.4 µM.
Still for that read-out and setting: the value for `COc1cc(OC)c(C(=O)/C=C/c2ccccc2C(F)(F)F)c(O)c1Br` was 3.2 µM.
The same measure, in the same setting: the value for `COc1cc(OC)c(C(=O)/C=C/c2ccccc2Cl)c(O)c1Br` was 15.9 µM; that for `COc1cc(OC)c(C(=O)/C=C/c2ccc(Cl)cc2Cl)c(O)c1Br` was 8.9 µM.
